In patent US20240189318A1, “THERAPEUTIC REGIMENS OF AN INHIBITOR OF THE ENZYMATIC ACTIVITY OF BRG1 AND BRM” (FOGHORN THERAPEUTICS INC., priority 2021, published 2024):
Where two headings read alike, the source gives them in different places.

Columns and labels:
[1] = Bidirectional transport in MDCK control cells (passive permeability); assay type: in vitro ADME; conditions: dog; for Papp B→A at 1 μM / Papp B→A at 50 μM / Papp A→B at 1 μM / Papp A→B at 10 μM / Papp B→A at 10 μM / Papp A→B at 50 μM: MDCK; for Papp A→B at 10 μM / Papp B→A at 10 μM: 10 μM compound of formula (I)
MDCK control cells = experiment: as above; assay type: in vitro ADME; conditions: MDCK control cells
OAT1 = target: T1, OAT1 (Homo sapiens, UniProt Q4U2R8); experiment: Transporter inhibition in MDCK-II cells, OAT1; assay type: in vitro ADME; conditions: for IC50: probe p-aminohippurate 2 μM
T1 construct: expressed in transfected cells; host or cells: MDCK-II
T1 sequence (Q4U2R8 1-563): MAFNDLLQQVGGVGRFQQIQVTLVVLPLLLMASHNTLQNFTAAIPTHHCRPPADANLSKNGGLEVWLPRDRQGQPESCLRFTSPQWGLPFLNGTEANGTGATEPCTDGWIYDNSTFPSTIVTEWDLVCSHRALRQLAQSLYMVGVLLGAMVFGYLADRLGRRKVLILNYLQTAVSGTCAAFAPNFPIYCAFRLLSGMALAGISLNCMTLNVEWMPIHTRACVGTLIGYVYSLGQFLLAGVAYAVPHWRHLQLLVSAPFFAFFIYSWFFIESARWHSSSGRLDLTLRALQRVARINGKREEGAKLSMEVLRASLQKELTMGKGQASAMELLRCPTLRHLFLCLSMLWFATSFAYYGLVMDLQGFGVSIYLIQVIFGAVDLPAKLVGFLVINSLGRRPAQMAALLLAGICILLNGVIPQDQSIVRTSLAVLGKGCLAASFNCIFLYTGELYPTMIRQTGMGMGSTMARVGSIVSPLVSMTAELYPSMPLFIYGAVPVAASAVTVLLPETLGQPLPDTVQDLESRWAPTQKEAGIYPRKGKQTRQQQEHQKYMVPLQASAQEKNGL

CYP1a2 mRNA = experiment: CYP mRNA expression in cultured rat hepatocytes, CYP1a2; assay type: in vitro ADME; conditions: 0.3 to 100 nM
[2] = Oral absorption in dogs, capsule; assay type: in vivo; conditions: administered in a capsule
BRM = BRM (Homo sapiens, UniProt P51531); experiment: biochemical
CYP2B6 = target: T2, CYP2B6 (Homo sapiens, UniProt P20813); experiment: Depletion by recombinant CYP enzyme, CYP2B6; assay type: in vitro ADME; design: from tissue; host or cells: pooled human liver microsomes; conditions: recombinant 2B6; 0.1 μM
T2 sequence (P20813 1-491): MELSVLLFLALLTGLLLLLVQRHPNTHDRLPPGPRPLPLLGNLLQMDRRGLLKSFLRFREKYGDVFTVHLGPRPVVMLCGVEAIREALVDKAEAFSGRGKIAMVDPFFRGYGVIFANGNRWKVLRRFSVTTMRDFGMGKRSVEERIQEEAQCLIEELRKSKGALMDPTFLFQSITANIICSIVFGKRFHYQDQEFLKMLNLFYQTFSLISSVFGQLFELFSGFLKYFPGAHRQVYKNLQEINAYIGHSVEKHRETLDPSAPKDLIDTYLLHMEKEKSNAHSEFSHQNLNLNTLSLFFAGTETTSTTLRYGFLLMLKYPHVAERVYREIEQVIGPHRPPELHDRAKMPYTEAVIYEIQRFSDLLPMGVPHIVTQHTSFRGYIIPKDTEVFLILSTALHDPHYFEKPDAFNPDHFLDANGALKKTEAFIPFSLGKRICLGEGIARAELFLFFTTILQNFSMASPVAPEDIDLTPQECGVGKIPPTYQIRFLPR

CYP2C9 = CYP2C9 (Homo sapiens, UniProt P11712); experiment: CYP enzyme inhibition in pooled human liver microsomes, CYP2C9; conditions: for inhibition at 30 µM: human, microsomes, Enzyme activity (% inhibition), CYP2C9, probe Diclofenac
[3] = BCRP assay, 50 μM compound of formula (I)
[4] = P-gp assay, 1 μM compound of formula (I)

Chain of CYP2C9 (P11712 whole entry): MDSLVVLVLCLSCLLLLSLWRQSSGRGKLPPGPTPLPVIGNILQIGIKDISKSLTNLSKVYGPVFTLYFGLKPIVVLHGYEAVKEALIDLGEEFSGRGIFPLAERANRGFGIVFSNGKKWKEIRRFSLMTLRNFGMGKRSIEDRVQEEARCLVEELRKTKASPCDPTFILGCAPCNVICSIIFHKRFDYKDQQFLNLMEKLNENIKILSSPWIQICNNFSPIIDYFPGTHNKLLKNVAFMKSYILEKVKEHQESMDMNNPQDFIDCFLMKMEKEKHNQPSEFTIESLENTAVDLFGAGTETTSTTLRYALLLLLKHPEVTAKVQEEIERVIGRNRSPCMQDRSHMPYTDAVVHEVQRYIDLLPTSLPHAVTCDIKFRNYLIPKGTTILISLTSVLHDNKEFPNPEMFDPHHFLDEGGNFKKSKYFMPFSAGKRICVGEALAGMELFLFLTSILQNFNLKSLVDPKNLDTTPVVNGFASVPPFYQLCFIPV
Chain of BRM (P51531 whole entry): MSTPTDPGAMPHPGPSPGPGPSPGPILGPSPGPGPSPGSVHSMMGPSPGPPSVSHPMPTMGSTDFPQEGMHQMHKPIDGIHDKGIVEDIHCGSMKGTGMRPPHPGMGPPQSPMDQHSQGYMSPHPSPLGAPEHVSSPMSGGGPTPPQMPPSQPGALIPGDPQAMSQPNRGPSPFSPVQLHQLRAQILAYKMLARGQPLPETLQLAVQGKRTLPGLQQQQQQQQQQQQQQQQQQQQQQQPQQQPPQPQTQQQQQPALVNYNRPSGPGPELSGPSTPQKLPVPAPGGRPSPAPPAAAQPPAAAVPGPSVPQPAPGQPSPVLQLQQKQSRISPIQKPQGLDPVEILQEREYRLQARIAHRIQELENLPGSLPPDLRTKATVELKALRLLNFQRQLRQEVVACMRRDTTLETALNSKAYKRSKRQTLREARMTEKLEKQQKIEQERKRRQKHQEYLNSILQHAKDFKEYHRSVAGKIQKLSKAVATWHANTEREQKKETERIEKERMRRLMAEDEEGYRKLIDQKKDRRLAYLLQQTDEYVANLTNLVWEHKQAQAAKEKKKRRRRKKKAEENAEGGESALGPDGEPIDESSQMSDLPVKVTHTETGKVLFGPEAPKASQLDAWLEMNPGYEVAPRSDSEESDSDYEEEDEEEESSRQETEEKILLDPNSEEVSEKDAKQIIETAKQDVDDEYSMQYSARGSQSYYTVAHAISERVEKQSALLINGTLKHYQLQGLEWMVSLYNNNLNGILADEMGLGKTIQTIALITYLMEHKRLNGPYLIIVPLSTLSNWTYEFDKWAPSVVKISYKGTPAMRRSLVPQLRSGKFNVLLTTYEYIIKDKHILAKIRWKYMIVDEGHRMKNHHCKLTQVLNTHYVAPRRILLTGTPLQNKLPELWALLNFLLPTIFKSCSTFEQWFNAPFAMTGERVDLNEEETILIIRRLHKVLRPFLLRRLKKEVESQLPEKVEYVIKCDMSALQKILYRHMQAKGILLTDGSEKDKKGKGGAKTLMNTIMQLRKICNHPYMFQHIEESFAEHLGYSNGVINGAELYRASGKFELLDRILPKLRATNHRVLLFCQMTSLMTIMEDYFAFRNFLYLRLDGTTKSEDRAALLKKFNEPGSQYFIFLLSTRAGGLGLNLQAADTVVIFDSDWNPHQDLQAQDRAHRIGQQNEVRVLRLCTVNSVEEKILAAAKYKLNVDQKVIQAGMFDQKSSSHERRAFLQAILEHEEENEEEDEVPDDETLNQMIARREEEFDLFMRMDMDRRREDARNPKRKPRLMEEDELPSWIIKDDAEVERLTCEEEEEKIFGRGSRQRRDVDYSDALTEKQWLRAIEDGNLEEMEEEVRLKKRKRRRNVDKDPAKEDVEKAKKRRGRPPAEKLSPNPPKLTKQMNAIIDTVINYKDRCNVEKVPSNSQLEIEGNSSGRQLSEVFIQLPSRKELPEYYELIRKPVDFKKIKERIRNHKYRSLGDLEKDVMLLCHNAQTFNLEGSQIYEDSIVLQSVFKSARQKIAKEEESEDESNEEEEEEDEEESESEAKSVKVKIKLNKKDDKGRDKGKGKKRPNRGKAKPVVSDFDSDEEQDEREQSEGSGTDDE

Molecule `COC[C@H](NC(=O)c1ccn(S(C)(=O)=O)c1)C(=O)Nc1nc(-c2cccc(N3C[C@@H](C)O[C@@H](C)C3)n2)cs1` [compound of formula (I), N-((S)-1-((4-(6-(cis-2,6-dimethylmorpholino)pyridin-2-yl)thiazol-2-yl)amino)-3-methoxy-1-oxopropan-2-yl)-1-(methylsulfonyl)-1H-pyrrole-3-carboxamide] has a Papp B→A at 1 μM [1] of 18.2 ×10⁻⁶ cm/s, a Papp B→A at 50 μM [1] of 18.5 ×10⁻⁶ cm/s and a Papp A→B at 1 μM ([1]; BCRP assay, 1 μM compound of formula (I)) of 26 ×10⁻⁶ cm/s. It also gave a Papp A→B at 10 μM ([1]; BCRP assay) of 25.4 ×10⁻⁶ cm/s, a Papp B→A at 10 μM ([1]; BCRP assay) of 20.9 ×10⁻⁶ cm/s and a Papp A→B at 50 μM [1, 3] of 21.3 ×10⁻⁶ cm/s. The Papp B→A at 50 μM [1, 3] was 19.2 ×10⁻⁶ cm/s, the Papp A→B at 1 μM [1, 4] was 28.8 ×10⁻⁶ cm/s and the Papp B→A at 1 μM [1, 4] was 21 ×10⁻⁶ cm/s. It also gave a Papp A→B at 10 μM ([1]; P-gp assay) of 31 ×10⁻⁶ cm/s, a Papp B→A at 10 μM ([1]; P-gp assay) of 23.6 ×10⁻⁶ cm/s and a Papp A→B at 50 μM ([1]; P-gp assay, 50 μM compound of formula (I)) of 25.5 ×10⁻⁶ cm/s. The Papp ([1]; MDCK control cells, read-out: apparent permeability coefficient (Papp) (B→A) or Papp (A→B)) was ≥ 15 ×10⁻⁶ cm/s, the passive permeability (MDCK control cells) was “high passive permeability” and the IC50 (OAT1; OAT1, corrected for difference between measured and nominal concentrations, read-out: IC50 corrected for non-specific binding) was > 11.8 µM. The IC50 (OAT1; OAT1 in MDCK-II cells, read-out: Estimated IC50 using nominal concentrations) was > 50 µM, the “inhibition toward OAT1” value (OAT1; nominal test concentrations up to 50 μM) was “minimal inhibition” and the “CYP1a2 mRNA expression decreased ≥50%” value (CYP1a2 mRNA) was “but not CYP1a2”. For the same molecule, the oral absorption [2] was “good oral absorption”, the IC50 (BRM) was 0.0045 µM and the “% Remaining of Compound of Formula (I)” value (CYP2B6) was 85.3%. For the same molecule, the IC50 (CYP2C9) was > 30 µM, the “direct inhibitory activity (% inhibition) toward CYP2C9” value (CYP2C9; PHLM, concentrations up to 30 μM) was < 50% and the inhibition at 30 µM (CYP2C9; 30 Minutes Pre-incubation with NADPH, PHLM) was 43.5%. For the same molecule, the inhibition at 30 µM (CYP2C9; 30 Minutes Pre-incubation without NADPH, PHLM) was 29.5% and the inhibition at 30 µM (CYP2C9; No Pre-incubation, PHLM) was 47.1%.
